Laboratory results from US6861416B2, “Oxazinones and methods for their use and synthesis” (Chirologix Pharmaceuticals, Inc., priority 2001, dated 2005).

What was measured:
Micrococcus luteus = test: Filter disc bioassay on agar plates seeded with Micrococcus luteus; format: cell-based; details: for Zone Size: agar plate
Procedure: Samples of 2-carboxymethyl-5-hydroxy-1,2-oxazin-3-one and penicillin were applied to a filter disc in the amounts indicated in Table 1, below. The discs were applied to agar plates seeded with Micrococcus luteus, and the plates were incubated over night at 37° C.
Samples of 2-[2-carboxypropyl]-5-hydroxy-1,2-oxazin-3-one and desacetoxycephalosporin G were applied to a filter disc in the amounts indicated in Table 2, below. The discs were applied to agar plates seeded with Micrococcus luteus, and the plates were incubated overnight at 37° C.

Compound: CC(CN1OC=C(O)CC1=O)C(=O)O (stereo not drawn) [2-[2-carboxypropyl]-5-hydroxy-1,2-oxazin-3-one]
- Zone Size (Micrococcus luteus; 12.0 micrograms on filter disc, incubated overnight at 37° C.): 2.0 cm
- antibacterial activity, times the activity of 2-carboxymethyl-5-hydroxy-1,2-oxazin-3-one (Micrococcus luteus; relative to 2-carboxymethyl-5-hydroxy-1,2-oxazin-3-one, from Tables 1 and 2): approximately 50 times

Compound: O=C(O)CN1OC=C(O)CC1=O [2-carboxymethyl-5-hydroxy-1,2-oxazin-3-one]
- Zone Size (Micrococcus luteus; 100 micrograms on filter disc, incubated over night at 37° C.): 1.1 cm
- Zone Size (Micrococcus luteus; 1000 micrograms on filter disc, incubated over night at 37° C.): 2.0 cm
- antibacterial activity (in words) (Micrococcus luteus; judged from Tables 1 and 2): weak antibacterial activity
- antibacterial activity, times less than that of penicillin (Micrococcus luteus; relative to penicillin, from Tables 1 and 2): at least 1000 times

Compound: C[C@H](C(=O)OC(C)(C)C)N1OC[C@@H](O)[C@@H](O)C1=O [8b, (αR,4R,5R)-2-(α-tert-Butoxycarbonylethyl)-4,5-dihydroxy-1,2-oxazinan-3-one]
- melting point: 93 to 94 °C

Compound: CC1(C)S[C@@H]2[C@H](NC(=O)Cc3ccccc3)C(=O)N2[C@H]1C(=O)O [Penicillin G, reference compound]
- Zone Size (Micrococcus luteus; 0.1 micrograms on filter disc, incubated over night at 37° C.): 1.6 cm

Compound: CC1=C(C(=O)O)N2C(=O)[C@@H](NC(=O)Cc3ccccc3)[C@H]2SC1 [desacetoxycephalosporin G, reference compound]
- Zone Size (Micrococcus luteus; 2.5 micrograms on filter disc, incubated overnight at 37° C.): 2.5 cm
